Experimental data reported in patent publication US5070074A, “Hypoglycemic and growth-promoting polypeptides isolated from bacitracin” (Protor Co., priority 1990, dated 1991).

Test system: insulinase
Test: insulinase inhibitory activity (method of Duckworth et al.)
Type: biochemical
Details: peaks from CM-Sepharose fractionation of commercial bacitracin
Protocol: The desired fraction is believed to have a molecular weight of about 1400, approximately the same as bacitracin A or F. Their anti-insulinase and antibacterial activities can be assayed in conventional manner. For example, the insulinase inhibitory activity was measured according to the method of Duckworth, et al., Proc. Nat. Acad. Sci., 69, 3698-3702 (1972) and the anti-bacterial activity by the method of Patrick, et al., Antibiotics and Chemotherapy, 1, 133-137 (1951).
A 350 ml bed volume of CM-Sepharose in a packed column (2.8×56 cm) was equilibrated with 0.05M ammonium acetate, pH 4.5 One gram of commercial bacitracin dissolved in 50 ml of buffer was applied to the packed column. The material was eluted with […] of equilibrating buffer followed by 350 ml of 1M ammonium acetate pH 4.5 buffer. Five ml fractions were collected and absorbance measurements at 252, 280 and 290 nm were made. In addition, insulinase inhibitory activity measurements were made on each peak. […] The peaks were collected, lyophilized, weighed and dissolved in water at 5 mg/ml concentration for specific activity measurements. The material collected with the second buffer contained 5-10 % of the total weight of the applied material and 90 % of the total insulinase inhibitory capacity. The specific activity of this material was 10-12 times that of the starting commercial material.

## bacitracin F
  insulinase inhibitory activity: negligible
Listed as bacitracin F
  insulinase inhibitory activity: substantially no

## bacitracin A
  insulinase inhibitory activity: negligible
Listed as bacitracin A
  insulinase inhibitory activity: substantially no
